Measured values from patent US10779532B2, “Methods and compositions for killing of insect pest eggs” (North Carolina State University, priority 2016, dated 2020).

Key:
cotton bollworm eggs = assay: Killing insect eggs, cotton bollworm model system (3 second dip, egg hatch over 4 days); type: in vivo; conditions: 2-undecanone from 1 to 8% in absolute ethanol, hatch assessed 4 days, highest level of the dose response
Description: Due to their obligate parasitic lifestyle, lice, head lice, in particular, are very difficult to obtain. Thus, bollworm eggs were used in place of lice eggs for the experiments showing efficacy of the treatments described herein. […] Therefore, it is understood that if the treatment works on bollworm eggs, it will also work on the eggs of head lice. Further, the experiments using body lice, a recognized proxy for head lice, confirmed the effectiveness of the treatment with the formulations of this invention.
All treatments were conducted by dipping the bollworm eggs in the different treatments for 3 seconds, allowing the eggs to dry at room temperature, and then assessing egg hatch for the following 4 days. The eggs typically hatch under these conditions in 2.5 days. The solvent used in these experiments was absolute ethanol.

eggs = assay: Residual activity against eggs; type: in vivo; conditions: after application
[1] = Evaporation of 2-undecanone after application; type: physicochemical; conditions: typically
insect pest eggs = assay: Exposure of insect pest eggs to formulations, percent killed; type: in vivo
Description: As well understood, the percentage of eggs killed may depend on the concentration of the ovicide and the exposure time to the ovicide (e.g., the time for applying). Thus, applying or contacting of the compositions and formulations of the invention generally results in the killing of about 45% to about 100% (e.g., about 45, 50, 55, 60, 65, 70, 75, 80, 85, 90, 95, 100%) of the insect pest eggs for any given time period. However, the compositions and formulations are shown to work very quickly and efficiently, resulting in a killing of 100% of the insect pest eggs following a very short contact or application time. Thus, in some embodiments, a one to five second exposure results in a 100% kill of the insect pest eggs. In some embodiments, exposure of insect pest eggs to a formulation of 1% 2-undecanone and 1% DE for 3 seconds kills about 100% of the insect pest eggs. In some embodiments, exposure of insect pest eggs to a formulation of 8% 2-undecanone and 1% DE for 1 second kills about 100% of the insect pest eggs. In some embodiments, exposure of insect pest eggs to a formulation of 5% 2-undecanone for 1 second kills about 70% of the insect pest eggs. In some embodiments, exposure of insect pest eggs to a formulation of 15% 2-undecanone for about one to about five second kills about 100% of the insect pest eggs. […]

lice = assay: Killing of lice stages; type: in vivo; conditions: all stages of the lice

CCCCCCCCCC(C)=O [2-undecanone]
egg mortality (cotton bollworm eggs): about 90% | residual activity against eggs (eggs): minimal residual activity | time to evaporate [1]: ≤ 30 min | insect pest eggs killed (insect pest eggs; 5% 2-undecanone, exposure 1 second): about 70% | insect pest eggs killed (insect pest eggs; 15% 2-undecanone, exposure about one to about five second): about 100% | killing of lice stages (lice): kill all stages of the lice
